Reference: US10865196B2, “Compounds for treatment of cancer” (University of Tennessee Research Foundation, priority 2008, dated 2020)
Where “and” joins values, the source holds several entries; their conditions need not be identical. Equal values may be shown once. Read-outs that look alike come from different tables or passages of the source. Values belong to the compound of their own block, whether it stands above or below them.

Assays:
[1] = system: Human A375 malignant melanoma cells; assay: A375 melanoma colony formation; type: cell-based; conditions: 10 days
Description: Human A375 malignant melanoma cells were plated at a colony-forming density (200 cells per well on six well plates). Cells were grown in DMEM medium (GIBCO, Invitrogen Corp., Carlsbad, Calif.) supplemented with charcoal-stripped fetal bovine serum (HyClone, Logan, Utah) and an antibiotic-antimycotic solution (Sigma, St. Louis, Mo.) at 37° C. in an atmosphere of 95% air and 5% CO2. […] Cells were grown for 10 days and colonies were fixed with 4% paraformaldehyde in PBS at 4° C. The fixed colonies were washed with distilled water, stained with 0.1% crystalline blue for 30 min and rinsed with distilled water to remove excess of the dye. Plates were photographed and colony formations were examined by eye and under the microscope.

[2] = system: LNCaP prostate cancer cells; assay: cell cycle analysis, propidium iodide; type: cell-based, human; conditions: 24 h
[3] = pharmacokinetic study in ICR mice; conditions: mouse, IV 10 mg/kg
[4] = system: melanoma (A375, B16-F1) and prostate cancer cells (DU145, PC-3, LNCaP, PPC-1); assay: SRB assay, range over melanoma and prostate cancer cell lines; type: cell-based; conditions: range over the examined cell lines; read-out: IC50 over melanoma and prostate cancer cell lines
Description: (§1) For melanoma assays, one human melanoma cell line (A375) and one mouse melanoma cell line (B16-F1) were used. […] Fibroblast cells were used as a control to determine the selectivity of these compounds against melanoma. Human dermal fibroblast cells were purchased from Cascade Biologics, Inc., Portland, Oreg., USA. […] Cells were exposed to a wide range of concentrations for 48 h in round-bottomed 96-well plates. […] After cells were air-dried overnight and stained with SRB solution, total proteins were measured at 560 nm with a plate reader.

[5] = system: NCI-60 human tumor cell lines; assay: NCI-60 screening assay
[6] = pharmacokinetic study in Sprague-Dawley rats; conditions: rat
[7] = system: melanoma cells; assay: SRB assay, melanoma cells; type: cell-based; conditions: range over melanoma cell lines; read-out: IC50 values against melanoma cells
Description: as §1

[8] = system: B16-F1 mouse melanoma; assay: B16-F1 melanoma tumor in C57BL/6 mice; type: in vivo; conditions: B16-F1 in C57BL/6 mice, 6 mg/kg daily i.p.
Description: B16 tumors will grow in a fully immunocompetent host, in which case the tumor progression may more accurately replicate melanoma growth. Logarithmic growth phase B16-F1 (3.8×10^5) cells were injected s.c. into the right dorsal flank of C57BL/6 mice. When tumors were palpable, mice were randomized into a control and a treatment group (n=9). […] Body weights were also recorded. Tumor volume was expressed as cubic millimeters. […] There was no significant body weight loss (<5%), and all mice had normal activities during the experiments.

[9] = system: prostate cancer cells (LNCaP, PC-3, DU-145, PPC-1); assay: SRB assay, prostate cancer cells; type: cell-based, human; conditions: range over prostate cancer cell lines, read-out: IC50 values against prostate cancer cells
[10] = system: C26; assay: SRB antiproliferation assay, C26 colon cancer; conditions: C26, 96 h, read-out: IC50 in the SRB, C26
[11] = system: MES-SA; assay: SRB antiproliferation assay, MES-SA uterine cancer; conditions: Homo sapiens, 96 h, read-out: IC50 in the SRB, MES-SA
[12] = system: NCI/ADR-RES; assay: SRB antiproliferation assay, P-gp over-expressing NCI/ADR-RES; conditions: Homo sapiens, NCI/ADR-RES, 96 h, read-out: IC50 in the SRB, NCI/ADR-RES
[13] = system: PC-3; assay: SRB antiproliferation assay, PC-3 prostate cancer
[14] = metabolic stability in human liver microsomes; conditions: Phase I conditions, FIG. 18
[15] = system: MES-SA/DX5; assay: SRB antiproliferation assay, doxorubicin-resistant MES-SA/DX5
[16] = system: A549; assay: SRB antiproliferation assay, A549 lung cancer; conditions: Homo sapiens, A549, 96 h, read-out: IC50 in the SRB, A549
[17] = system: MCF7; assay: SRB antiproliferation assay, MCF7 breast cancer; conditions: Homo sapiens, MCF7, 96 h, read-out: IC50 in the SRB, MCF7
[18] = system: OVCAR-8; assay: SRB antiproliferation assay, OVCAR-8 ovarian cancer; conditions: Homo sapiens, OVCAR-8, 96 h, read-out: IC50 in the SRB, OVCAR8
[19] = system: confluent HUVEC monolayers; assay: endothelial monolayer permeability assay; type: cell-based, human; conditions: leakage of FITC-dextran (MW 40,000) after 1, 2 and 4 h
Description: Endothelial monolayer permeability assay.

[20] = system: T47D; assay: cell growth inhibition SRB, T47D; type: cell-based; conditions: Homo sapiens, N = 3, Table 14
Description: (§2) Cell growth inhibition studies. […] Cells were stained with sulphorhodamine B (SRB) solution.

[21] = system: PC3; assay: cell growth inhibition SRB, PC3 (vascular study); type: cell-based; conditions: Homo sapiens, PC-3, N = 3, Table 14
Description: as §2

[22] = system: HUVEC; assay: endothelial cell growth inhibition SRB, HUVEC; type: cell-based, human; conditions: for Selectivity ratio, cancer cells/HUVEC: mean IC50 in PC3 and T47D over IC50 in HUVEC
[23] = system: MES-SA/DX5 xenografts; assay: MES-SA/DX5 xenograft in nude mice; conditions: MES-SA/DX5 uterine (MDR) xenograft, IV 10 mg/kg 1/wk
[24] = system: PC-3; assay: apoptosis, cytoplasmic DNA-histone complexes, PC-3; type: cell-based, human; conditions: 0.8 to 600 nmol/L, 24 h
[25] = system: A549 xenografts; assay: A549 xenograft in nude mice; conditions: A549 lung xenograft, IV 10 mg/kg 1/wk
[26] = system: OVCAR8 xenografts; assay: OVCAR8 xenograft in nude mice; conditions: OVCAR8 ovary xenograft, IV 10 mg/kg 1/wk
[27] = system: PC-3/TxR tumors
[28] = system: C26 xenografts; assay: C26 xenograft in nude mice; conditions: C26 colon xenograft, IV 10 mg/kg 1/wk
[29] = system: HUVEC capillary tube formation; assay: capillary formation assay on Matrigel; type: cell-based, human; conditions: at toxic concentration
[30] = system: B16-F1; assay: SRB antiproliferation assay, B16-F1 melanoma; type: cell-based, mouse; conditions: Mus musculus, B16-F1, SRB; read-out: IC50 B16-F1 (converted)
Description: (§3) For melanoma assays, one human melanoma cell line (A375) and one mouse melanoma cell line (B16-F1) were used. […] Fibroblast cells were used as a control to determine the selectivity of these compounds against melanoma. Human dermal fibroblast cells were purchased from Cascade Biologics, Inc., Portland, Oreg., USA.

[31] = system: A375; assay: SRB antiproliferation assay, A375 melanoma; type: cell-based, human; conditions: Homo sapiens, A-375, SRB; read-out: IC50 A375 (converted)
Description: as §3

[32] = system: colchicine-binding site on tubulin; assay: competitive mass binding assay, colchicine-tubulin binding; conditions: tubulin 1 mg/mL
[33] = read-out: IC50 in the SRB, PC3, 96 h treatment, N = 3, Table 15
[34] = Homo sapiens, MES-SA/Dx5, 96 h, read-out: IC50 in the SRB, MES-SA/DX5, uterine MDR, 96 h, N = 3
[35] = 5 mg/kg injected, 20 min-48 h, 5 mg/kg

IC50 [7]: 33 to 43 nM
IC50 [4]: 6 to 43 nM
IC50 ([9]; Homo sapiens): 6 to 13 nM
IC50 [9]: 6 to 12 nM
SMILES: COc1cc(C(=O)c2csc(-c3ccc(F)cc3)n2)cc(OC)c1OC [8n, [2-(4-Fluorophenyl)-thiazol-4-yl]-(3,4,5-trimethoxyphenyl)-methanone]
melanoma colony formation ([1]; A375, 0.03 μM): significantly inhibit
melanoma colony formation ([1]; A375, 0.3 and 3 μM): completely inhibited
body weight loss [8]: < 5%
tumor growth inhibition [8]: significant tumor growth inhibition

IC50 [10]: 16 nM
IC50 [11]: 18 nM
IC50 [13, 33]: 5 nM
stability in human liver microsomes, in words [14]: acceptable stability
IC50 [16]: 21 nM
IC50 [17]: 22 nM
IC50 [18]: 16 nM
SMILES: COc1cc(C(=O)c2csc(-c3ccc4c(ccn4C)c3)n2)cc(OC)c1OC [31a]
IC50 [12]: 14 nM
IC50 [15, 34]: 18 nM

Further lines, the compound ahead of its results:

SMILES: COc1cc(C(=O)c2csc(-c3ccccc3)n2)cc(OC)c1OC [8f, (2-Phenyl-thiazol-4-yl)-(3,4,5-trimethoxy-phenyl)-methanone]
melanoma colony formation ([1]; A375, 0.03 μM): significantly inhibit
melanoma colony formation ([1]; A375, 0.3 and 3 μM): completely inhibited
effect on cell cycle distribution ([2]; 10 nM): no effect
proportion of cells in G2/M phase ([2]; 50 nM, about 10% in untreated cells): 57%
proportion of cells in G2/M phase ([2]; 200 nM): 63%
proportion of cells in G2/M phase ([2]; 500 nM): 49%
MousePK_IV10mgk_CI [3]: 130 mL/min/kg
MousePK_IV10mgk_V [3]: 4.9 Lkg
IC50 [4]: 21 to 71 nM
GI50 ([5]; Homo sapiens, read-out: NCI-60 GI50 values): < 10 nM
NCI-60 TGI values ([5]; against most cell lines): micromolar range
RatPK IV CI at 2.5 mpk ([6]; IV 2.5 mpk): 7.7 (2.5 mpk) mL/min/kg
RatPK IV V at 2.5 mpk ([6]; IV 2.5 mpk): 4.9 (2.5 mpk) L/kg

SMILES: COc1ccc(/C=C\c2cc(OC)c(OC)c(OC)c2)cc1O [CA4, reference compound]
permeability of endothelial cell monolayer [19]: increased permeability
IC50 [20]: 6 nM
IC50 [21]: 3.2 nM
IC50 ([22]; Homo sapiens, HUVEC, SRB, N = 3, growth factor-supplemented endothelial cells): 1.2 nM

SMILES: CC(=O)O[C@@]12CO[C@@H]1C[C@H](O)[C@@]1(C)C(=O)[C@H](O)C3=C(C)[C@@H](OC(=O)[C@H](O)[C@@H](NC(=O)OC(C)(C)C)c4ccccc4)C[C@@](O)([C@@H](OC(=O)c4ccccc4)[C@H]21)C3(C)C [Docetaxel, reference compound]
TGI [23]: 47%
IC50 [10]: 4 nM
IC50 [11]: 0.1 nM
induction of cell apoptosis in PC-3 [24]: highly potent
TGI [25]: 44%
TGI [26]: 22%
TGI ([27]; PC3/TXR prostate (MDR) xenograft, IV 10 mg/kg 1/wk): 14%
TGI ([27]; PC-3/TxR xenograft, IV 10 mpk day 1 and 9, day 19): 14%
TGI ([27]; PC-3/TxR xenograft, IV 20 mpk day 1 and 9, day 19): 56%
IC50 ([13]; read-out: Cytotoxicity IC50 mean ± SD, PC-3, 96 h treatment, N = 3): 1.2 ± 0.1 nM
IC50 [13, 33]: 1 to 5 nM
TGI [28]: 35%
IC50 ([15]; read-out: IC50 in the SRB, MES-SA/DX5, uterine MDR, 96 h, N = 3): 26 nM
IC50 ([15]; read-out: IC50 in the SRB, MES-SA/DX5, uterine MDR, 96 h, N = 3, listed as DTX): 426 nM
IC50 [16]: 0.2 nM
IC50 [17]: 0.1 nM
IC50 [18]: 0.4 nM

SMILES: COc1cccc2c1C(=O)c1c(O)c3c(c(O)c1C2=O)C[C@@](O)(C(=O)CO)C[C@@H]3O[C@H]1C[C@H](N)[C@H](O)[C@H](C)O1 [Doxorubicin]
permeability of endothelial cell monolayer [19]: did not induce any change
Selectivity ratio, cancer cells/HUVEC [22]: 1.4
Selectivity ratio, cancer cells/HUVEC ([22]; listed as doxorubicin): not specific to endothelial cells
capillary construction [29]: did not affect

SMILES: COc1cc(C(=O)c2csc(-c3ccc4[nH]ccc4c3)n2)cc(OC)c1OC [compound 31]
IC50 [10]: 5 nM
IC50 [30]: 8.3 nM
IC50 [11]: 6 nM
IC50 [12]: 5 nM
IC50 ([13]; read-out: IC50 PC-3, SRB): 7.6 nM
stability in human liver microsomes, in words [14]: acceptable stability
IC50 [15, 34]: 8 nM
IC50 [16]: 9 nM
AUC [6, 35]: 210 µg·min/mL and 249 µg·min/mL
CI [6, 35]: 23 mL/min/kg and 18 mL/min/kg
IC50 [17]: 11 nM
IC50 [18]: 11 nM
IC50 [31]: 25 nM

SMILES: CC[C@]1(O)C[C@@H]2CN(CCc3c([nH]c4ccccc34)[C@@](C(=O)OC)(c3cc4c(cc3OC)N(C)[C@H]3[C@@](O)(C(=O)OC)[C@H](OC(C)=O)[C@]5(CC)C=CCN6CC[C@]43[C@@H]65)C2)C1 [vinblastine, reference compound]
competition with colchicine for tubulin binding [32]: did not inhibit the colchicine-tubulin binding
